Results as given in US7288573B2, “Method of repelling insects” (priority 2001, dated 2007).
Several values for one entry are separate records, joined by “and”; a condition that tells them apart may be missing. Identical values can stand only once. Entries after “also recorded” stand apart in the source; their conditions may differ.

How the values were obtained:
Culex spp. [1] = experiment: Mosquito repellency of 2-undecanone, treated arm in cage (Example 5); format: in vivo; settings: for No. landings: single replicates; for observed mosquito behavior / repellent effect (words): observed at 0, 3 and 6 hours
Source text: Two mosquitoes cages were constructed using wood framing and fine mesh wire screen. The dimensions of each cage were 59 cm high×55 cm wide×59 cm deep. A hinged access door was installed at the front of each chamber for insertion of the water-filled containers filled with mosquito pupae. Also present at the front of each chamber was a 9 cm diameter plastic tube (i.d.) for insertion of the arm of the investigator. The arm insertion tube was sealed with a rubber stopper when not in use.
Mosquitoes (Culex spp.) were obtained (as pupae) from Carolina Biological Supply Co., Burlington, N.C., USA. Following their arrival, the mosquitoes were divided into approximately equal numbers in two water-filled containers and placed in the two cages described above. Some of the mosquitoes had hatched upon arrival.
Testing was done with 2-undecanone for repellent activity by treating one arm of the investigator with approximately 1 ml of the test solution. Following several minutes for solvent evaporation, the treated arm was inserted through the insertion tube for 5 minutes. The other arm was treated with ethanol (control) or a different concentration of 2-undecanone, and inserted into the insertion tube of the adjacent chamber. Next, the behavior of the mosquitoes in response to the presence of the investigator's arms was noted. Mosquito behavior was recorded as 1) landing or attempting to land on the investigator's arm, versus 2) dispersal away from the treated arm towards the opposite ends of the cage. The approximate number of mosquitoes present at the beginning of the observations was noted. The observations were repeated (without re-treatment of the investigator's hand and arm) after 3 hours and again after 6 hours. Treatments were alternated between the different cages. Each observation was repeated 3 times. Tests were done with 20%, 5%, 2%, 0.5% 2-undecanone, 20% DEET, and the ethanol control.
With one exception, none of the mosquitoes succeeded in biting, although mosquitoes that landed on the investigator's arm were dislodged by flicking the arm or hand. In most cases, any physical movement of the hand or arm will induce the mosquito to leave. Thus, few if any bites were expected. Landings on the arm were considered as evidence of attraction, with intent to bite.

Culex spp. [2] = experiment: Mosquito repellency of 2-undecanone and 2-tridecanone, treated arm in cage (Example 6); format: in vivo; settings: for No. landings: single replicates; for observed repellent / residual activity (words): observed up to 24 hours post-treatment
Source text: Cages. The same two mosquitoes cages described in Example 5 were used for this example. The cages were constructed using wood framing and fine mesh wire screen. The dimensions of each cage were 59 cm high×55 cm wide by 59 cm deep. A hinged access door was installed at the front of each chamber for insertion of the water-filled containers filled with mosquito pupae. Also present at the front of each chamber was a 9 cm diameter plastic tube (i.d.) for insertion of the arm of the investigator. The arm insertion tube was sealed with a rubber stopper when not in use.
Mosquitoes and Mosquito Rearing. Mosquitoes (Culex spp.) were obtained (as pupae and larvae) from Carolina Biological Supply Co., Burlington, N.C., USA in two successive shipments, so as to provide a continuing long term supply of fresh insects. Following their arrival, the mosquitoes were divided into approximately equal numbers in multiple water-filled containers and placed in the two cages described above. The larval and pupal cultures were fed with insect rearing compound. In addition, the water was changed regularly by filtration to minimize contamination and prevent overcrowding. Continuous culturing made it possible to increase the mosquito numbers to more than 100 insects per cage.
Test Compounds and Testing Schedule. Testing was done with two compounds, 2-undecanone, and 2-tridecanone, for repellent activity by treating one arm of the investigator with approximately 1 ml of the test solution. Following several minutes for solvent evaporation, the treated arm was inserted through the insertion tube for 5 minutes. The other arm was treated with isoprbpanol (control) or a different concentration of the compound, and inserted into the insertion tube of the adjacent chamber. Next, the behavior of the mosquitoes in response to the presence of the investigator's arms was noted. Mosquito behavior was recorded as 1) landing or attempting to land on the investigator's arm, or coming to rest on the wire screen immediately adjacent to the investigator's arm or hand, versus 2) dispersal away from the treated arm towards the opposite ends of the cage. The approximate number of mosquitoes present at the beginning of the observations was noted. For treatments with 2-undecanone, observations were made initially to confirm 100% repellent activity of the compound immediately after treatment but observations were not recorded. Recording of efficacy was delayed until 6 hours after treatment, and then repeated at 12 and 24 hours post-treatment. For treatment with 2-tridecanone, the observations commenced immediately after solvent drying; then, the observations were repeated (without re-treatment of the investigator's hand and arm) after 6 hours, 12 hours and 24 hours. Treatments were alternated between the different cages. […]
2-tridecanone was obtained as a solid. To prepare this compound for testing, it was subjected to gentle heating in a 37° C. water bath to liquefy it, and aliquots of the stock were diluted volume: volume with isopropanol to 50% concentration and 20% concentration. Sufficient pure compound was retained for direct application (undiluted).
Tests were done at concentrations of 100%, 50%, and 20% for each of the two compounds, as well as 20% DEET, and the isopropanol control.
Table 3 presents the efficacy found at the different time intervals for each of the compounds at the three different concentrations and for DEET. Efficacy was calculated according to the formula: [(no. landings/no. present in control)−(no. landings/no. present in experinental) divided by (no. landings/no. present in control)]×100.

[3] = 0.5% on arm, 6 hours after treatment
[4] = 2% on arm, 6 hours after treatment
[5] = 5% on arm, 0 hours after treatment
[6] = 5% on arm, 3 hours after treatment
[7] = 5% on arm, 6 hours after treatment
[8] = 20% on arm, 0 hours after treatment
[9] = 20% on arm, 3 hours after treatment
[10] = 20% on arm, 6 hours after treatment
[11] = 20% concentration, 6 hours after treatment
[12] = 20% concentration, 12 hours after treatment
[13] = 20% concentration, 24 hours after treatment
[14] = 50% concentration, 6 hours after treatment
[15] = 50% concentration, 6 hours after treatment, listed as IBI-246
[16] = 50% concentration, 12 hours after treatment
[17] = 50% concentration, 12 hours after treatment, listed as IBI-246
[18] = 50% concentration, 24 hours after treatment
[19] = 50% concentration, 24 hours after treatment, listed as IBI-246
[20] = 100% concentration, 6 hours after treatment
[21] = 100% concentration, 12 hours after treatment
[22] = 100% concentration, 24 hours after treatment

## CCCCCCCCCC(C)=O [2-undecanone]
Culex spp. [1]; 0.5% on arm, 0 hours after treatment
  No. landings, Mean: 0.7
Culex spp. [1]; 0.5% on arm, 3 hours after treatment
  No. landings, Mean: 0.7
Culex spp. [1]; [3]
  No. landings, Mean: 0.3
  No. landings: 0 (2×) and 1
Culex spp. [1]; 0.5% on arm
  observed mosquito behavior / repellent effect (words): no differences between the treated arm and the ethanol controls were observed
Culex spp. [1]; 0.5% on arm, listed as Undecanone
  observed mosquito behavior / repellent effect (words): throughout the cage. No obvious avoidance, no dispersal away from
Culex spp. [1]; 2% on arm, 0 hours after treatment
  No. landings, Mean: 0.7
Culex spp. [1]; 2% on arm, 3 hours after treatment
  No. landings, Mean: 1.0
Culex spp. [1]; [4]
  No. landings, Mean: 0.7
  No. landings: 1 (2×) and 0
Culex spp. [1]; 2% on arm
  observed mosquito behavior / repellent effect (words): at three hours after treatment, there was no effect
Culex spp. [1]; [5]
  No. landings, Mean: 0
  No. landings: 0
Culex spp. [1]; [6]
  No. landings, Mean: 0
  No. landings: 0
Culex spp. [1]; [7]
  No. landings, Mean: 1.0
  No. landings: 1
Culex spp. [1]; 5% on arm
  observed mosquito behavior / repellent effect (words): immediate and obvious repellent behavior; also recorded: The effect was absent after 6 hours
Culex spp. [1]; 5% on arm, listed as Undecanone
  observed mosquito behavior / repellent effect (words): Comments: The formulation was highly repellent. Mosquitoes
Culex spp. [1]; [8]
  No. landings, Mean: 0
  No. landings: 0
Culex spp. [1]; [9]
  No. landings, Mean: 0
  No. landings: 0
Culex spp. [1]; [10]
  No. landings, Mean: 0
  No. landings: 0
Culex spp. [1]; 20% on arm
  observed mosquito behavior / repellent effect (words): the effect was lost after 6 hours
Culex spp. [1]; tested at 20%, 5%, 2%, 0.5%
  concentrations with the strongest repellent effect: strongest effect at the 5% and 20% concentrations
Culex spp. [2]; 20% concentration, 0 hours
  Percent Efficacy Post-Treatment: 100%
Culex spp. [2]; 20% concentration, 6 hours
  Percent Efficacy Post-Treatment: 46.6%
Culex spp. [2]; [11]
  No. landings, Mean: 0.7
  Percent = [(No. landings/No. present)] × 100: 2.5%
  No. landings: 0 (2×) and 2
Culex spp. [2]; 20% concentration, 6 hours after treatment, listed as 2-Undecanone
  Percent = [(No. landings/No. present)] × 100: 7.1%
Culex spp. [2]; 20% concentration, 12 hours
  Percent Efficacy Post-Treatment: 0%
Culex spp. [2]; [12]
  No. landings, Mean: 5.0
  Percent = [(No. landings/No. present)] × 100: 17.1%
  No. landings: 5 and 6 and 4
Culex spp. [2]; 20% concentration, 12 hours after treatment, listed as 2-Undecanone
  Percent = [(No. landings/No. present)] × 100: 17.1%
Culex spp. [2]; 20% concentration, 24 hours
  Percent Efficacy Post-Treatment: 0%
Culex spp. [2]; [13]
  No. landings, Mean: 4.0
  Percent = [(No. landings/No. present)] × 100: 13.4%
  No. landings: 4
Culex spp. [2]; 20% concentration, 24 hours after treatment, listed as 2-Undecanone
  Percent = [(No. landings/No. present)] × 100: 13.8%
Culex spp. [2]; 50% concentration, 0 hours
  Percent Efficacy Post-Treatment: 100%
Culex spp. [2]; 50% concentration, 6 hours
  Percent Efficacy Post-Treatment: 83.5%
Culex spp. [2]; [14]
  No. landings, Mean: 1.3
  Percent = [(No. landings/No. present)] × 100: 1.1%
Culex spp. [2]; [15]
  Percent = [(No. landings/No. present)] × 100: 2.2%
  No. landings: 0 (3×) and 1 and 3 and 4
Culex spp. [2]; 50% concentration, 12 hours
  Percent Efficacy Post-Treatment: 65.3%
Culex spp. [2]; [16]
  No. landings, Mean: 7.2
  Percent = [(No. landings/No. present)] × 100: 5.8%
Culex spp. [2]; [17]
  Percent = [(No. landings/No. present)] × 100: 5.8%
  No. landings: 1 and 2 (2×) and 13 (2×) and 12
Culex spp. [2]; 50% concentration, 24 hours
  Percent Efficacy Post-Treatment: 56.5%
Culex spp. [2]; [18]
  No. landings, Mean: 7.5
  Percent = [(No. landings/No. present)] × 100: 5.7%
Culex spp. [2]; [19]
  Percent = [(No. landings/No. present)] × 100: 5.7%
  No. landings: 3 and 2 (2×) and 11 (2×) and 16
Culex spp. [2]; 100% concentration, 0 hours
  Percent Efficacy Post-Treatment: 100%
Culex spp. [2]; 100% concentration, 6 hours
  Percent Efficacy Post-Treatment: 100%
Culex spp. [2]; [20]
  No. landings, Mean: 0
  Percent = [(No. landings/No. present)] × 100: 0%
  No. landings: 0
Culex spp. [2]; 100% concentration, 12 hours
  Percent Efficacy Post-Treatment: 48.5%
Culex spp. [2]; [21]
  No. landings, Mean: 1.7
  Percent = [(No. landings/No. present)] × 100: 8.6%
  No. landings: 3 and 1 (2×)
Culex spp. [2]; 100% concentration, 12 hours after treatment, listed as 2-Undecanone
  Percent = [(No. landings/No. present)] × 100: 8.6%
Culex spp. [2]; 100% concentration, 24 hours
  Percent Efficacy Post-Treatment: 0%
Culex spp. [2]; [22]
  No. landings, Mean: 3.0
  Percent = [(No. landings/No. present)] × 100: 19.1%
  No. landings: 3
Culex spp. [2]; 100% concentration
  observed repellent / residual activity (words): absent after 24 hours post-treatment
Culex spp. [2]; 100% concentration, listed as 2-Undecanone
  observed repellent / residual activity (words): Comments: Strong avoidance response was still evident at 6 hours. Avoidance was much; also recorded: weaker after 12 hours and no obvious avoidance, no dispersal away from the treated
Culex spp. [2]; 100%, 50% and 20% concentrations, 0 to 24 hours
  overall repellent activity, comparison of the two compounds: greatest activity overall
